Drug uptake data for one molecule are collected here from ChEMBL document CHEMBL2034921, “5-(5-(6-[(11)C]methyl-3,6-diazabicyclo[3.2.0]heptan-3-yl)pyridin-2-yl)-1H-indole as a potential PET radioligand for imaging cerebral α7-nAChR in mice” (Bioorg Med Chem, 2012).

Type in all cases: ADME, organism-based
One data set concerns Thalamus. Put plainly: Biodistribution in CD1 mouse thalamus at 0.1 mCi, iv at 30 mins by gamma counting. Conditions: in vivo, 0.5 h; call rule not given here.
For data set [1], the system named is Mus musculus. Nature of the data set: Biodistribution in CD1 mouse frontal cortex at 3.7 MBq, iv after 90 mins in presence of 0.5 mg/kg, sc of PHA543613. Further details: dose 0.5 mg/kg, route intravenous. As to conditions: in vivo, 1.5 h.
Data set [2] concerns Mus musculus. Put plainly: Biodistribution in CD1 mouse frontal cortex at 0.1 mCi, iv at 30 mins by gamma counting. As to conditions: in vivo, 0.5 h.
A further data set has as its system Striatum. Nature of the data set: Biodistribution in CD1 mouse striatum at 0.1 mCi, iv at 30 mins by gamma counting. As to conditions: in vivo, 0.5 h.
Data set [3] deals with Hippocampus. Nature of the data set: Biodistribution in CD1 mouse hippocampus at 0.1 mCi, iv at 30 mins by gamma counting. Conditions: in vivo, 0.5 h.
The subject of data set [4] is Hippocampus. Nature of the data set: Biodistribution in CD1 mouse hippocampus at 3.7 MBq, iv after 90 mins in presence of 0.5 mg/kg, sc of PHA543613. As to conditions: in vivo, 1.5 h. Further details: dose 0.5 mg/kg, route intravenous.

In the case of `[11CH3]N1CC2CN(c3ccc(-c4ccc5[nH]ccc5c4)nc3)CC21` (racemic), the Drug uptake result in the data set with Thalamus is listed as “Active”; in the data set on Mus musculus [1] it was “Not Active”; with Mus musculus [2] it was “Active”; with Striatum, “Active”; in the data set on Hippocampus [3], “Active”; with Hippocampus [4] it was “Not Active”.
